Data from patent US20020114804A1, “A METHOD OF TREATING INFECTION OF SUTURES AND PROSTHETIC DEVICES” (priority 1996, published 2002).

Assays:
Type in all cases: cell-based, human
PMNs [1] = assay: PMN migration through Matrigel or Matrigel/tenascin coated filters; details: Matrigel alone
Method: Polymorphonuclear leukocytes (PMN), were prepared as described (7) from heparinized human blood by sedimentation on Ficoll-Hypaque gradients. Contaminating red blood cells were removed by hypotonic lysis. The purity of PMN isolated by this method was >95% as determined by Wright-Giemsa staining.
(§1) Cell culture inserts containing polyethylene terephthalate filters, 8-μm pore size (Becton-Dickinson), were overlaid with 0.1 ml of Matrigel (20-25 μg protein/filter) (Collaborative Research, Bedford, Mass.), and incubated at room temperature until they dried. These Matrigel-coated filters were washed with phosphate buffered saline containing 1.0 mM Mg^2+ and 1.0 mM Ca^2+ (PBS). 0.1 ml of a PBS solution (pH 7.2) containing the indicated amount of purified chick brain tenascin was added to some of the inserts. The filters were incubated at room temperature until they dried. These protein-coated filters were washed again with PBS and used within 12 h for cell migration studies. To prepare collagen I-coated inserts, filters were coated with rat tail collagen I (ICN Biochemicals, Costa, Mesa, Calif.) (400 μg/ml in PBS), by adding 0.1 ml of this solution to an insert and incubating the inserts at room temperature for 24 h. Some of these collagen I-coated filters were then incubated with tenascin as described above.
PMN: 250 μl of PBS [supplemented with 5.5 mM glucose and 0.1% human serum albumin (HSA) (PBSG-HSA)] containing 1×10^6 PMNs was placed in the upper compartment of each insert. 250 μl of PBSG-HSA with or without chemoattractant, as indicated, was added to the bottom compartment. The inserts were incubated for about 4 h at 37° C. in a humidified atmosphere containing 95% air/5% CO2. […] The medium in the lower compartment was collected and its content of PMN determined using a Coulter Counter, as described in Example 1.

monocytes [2] = assay: Monocyte migration through Matrigel or Matrigel/tenascin coated filters; details: Matrigel alone
Text: Mononuclear cells were isolated by centrifugation of heparinized human blood on Ficoll-Hypaque gradients as described (65, 66). The mononuclear cell fraction was resuspended in RMPI 1640 medium supplemented with 10% pooled human serum or autologous serum and used immediately for monocyte migration studies. For some experiments, monocytes were obtained by centrifugation of whole blood or of white blood cells concentrated from a unit of blood (leukopak), on Nycodenz gradients as described (39). More than 90% of the nucleated cells obtained by this Nycodenz method were monocytes, as assessed by their ability to phagocytose IgG-coated red blood cells.
(§2) Cultured monocytes were prepared by allowing 10^7 total mononuclear cells, suspended in 10 ml of RMPI 1640 medium supplemented with 10% pooled human serum (1640+HS), or 10% autologous serum (1640+AS), to adhere to Falcon T-150 tissue culture Petri dishes for 2 h at 37° C. Non-adherent cells were removed by washing, leaving an adherent cell population consisting of greater than 98% monocytes as measured by their capacity to phagocytose IgG coated sheep red blood cells. For migration studies, monocytes were maintained in culture for 24 h in RPMI 1640+HS or AS, and detached from the dishes by gentle pipetting of 10 ml of ice cold phosphate buffered saline (without Ca^2+ or Mg^2+) containing 1.0 mM EDTA. The cells recovered were resuspended in RPMI-1640+HS as described (65).
as §1
Monocytes: Cell culture inserts were placed in 16 mm wells containing 0.5 mls of RPMI-1640+HS or AS in the presence or absence of a chemoattractant. 0.5 ml of RPMI-1640+HS or AS serum containing between 2-10×10^5 mononuclear phagocytes was added to the upper chamber of the inserts and the inserts were placed in a humidified CO2 incubator at 37° C. After 24 h the medium in the lower chamber was recovered and its cell content assayed using either a Coulter counter or a hemocytometer. […] Cell counts reported are the average number of cells recovered from the medium in the lower compartment of chemotaxis chambers. Over 90% of the cells in the lower chamber were identified as monocytes based on their morphology, their capacity to phagocytose IgG coated sheep red cells, and their staining with fluorescein-conjugated anti α,β monoclonal antibody (Oncogene Sciences, Uniondale, N.Y.). Unless otherwise indicated, all values are the average of duplicate samples run in parallel in a representative experiment. Each experiment was repeated at least three times with similar results.

PMNs [3] = assay: PMN migration through plasma clots (plasma gels); details: chemoattractant in lower compartment, 6 hrs
Method: (§3) Becton-Dickinson cell culture inserts (pore sizes 3 or 8 μm: Franklin Lakes, N.J.) were overlaid with the following proteins:
Clotted Plasma: Whole blood was collected and the cellular components were removed by centrifugation. The resulting plasma was mixed with an equal volume of PBS, and 100 μl of this mixture was placed into each insert containing thrombin and allowed to clot as described above. One unit of PPACK in 100 μl PBS then was added and the inserts were washed with 250 μl of PBS.
(§4) PMNs were prepared from fresh heparinized blood from healthy adult volunteers by sedimentation on Ficoll-Hypaque gradients. Contaminating red blood cells were removed by hypotonic lysis, as described (7). The purity of PMN isolated by this method is >95% as determined by Wright-Giemsa staining (7). 10^6 PMNs in 250 μl of PBS supplemented with 5.5 mM glucose and 0.1% human serum albumin (PBSG-HSA), were placed in the upper compartment of each insert and incubated for 0-6 hrs at 37° C. in a humidified atmosphere containing 95% air/5% CO2. […] The medium in each lower compartment was collected and its content of PMNs was determined using either a Coulter Counter or a hemocytometer. […] Counts are expressed as the average number of PMNs that migrated into the lower compartment. […]

PMNs [4] = assay: Exclusion of fluorescein-conjugated F(ab)2 anti-fibrin from zones of contact between PMNs and fibrin
Text: Therefore, the exclusion of fluorescein-conjugated F(ab)2 anti-fibrin from zones of contact between LTB4- or IL-8-stimulated PMNs and fibrin was used as a measure of the interaction of these cells with fibrin-coated surfaces. About 50% of fibrin-adherent LTB4- or IL-8-stimulated PMNs formed adhesive zones that excluded this high molecular weight (100 kDa.) probe. As expected from studies with Rh-PEG (FIG. 8), >99% of fibrin-adherent TNF- or fMLP-stimulated PMNs excluded fluorescein-conjugated F(ab)2 anti-fibrin from their zones of contact with fibrin (data not shown).

monocytes [5] = assay: Monocyte migration through collagen I coated inserts; details: collagen I alone, 24 h
Method: as §2
Cell culture inserts containing polyethylene terephthalate filters, 8-μm pore size (Becton-Dickinson), were overlaid with 0.1 ml of Matrigel (20-25 μg protein/filter) (Collaborative Research, Bedford, Mass.), and incubated at room temperature until they dried. These Matrigel-coated filters were washed with phosphate buffered saline containing 1.0 mM Mg^2+ and 1.0 mM Ca^2+ (PBS). 0.1 ml of a PBS solution (pH 7.2) containing the indicated amount of purified chick brain tenascin was added to some of the inserts. The filters were incubated at room temperature until they dried. […]

PMNs [6] = assay: PMN migration through gels of Matrigel or collagen IV; details: added to the bottom chamber
Method: as §3
Collagen type IV and Matrigel matrices: 0.1 ml PBS containing 100 μg human placental collagen IV (Fluka Chemical Corp., Ronkonkoma, N.Y.), or 80 μg of reconstituted basement membrane proteins (Matrigel, Collaborative Research, Bedford, Mass.), was placed into each insert and allowed to gel at room temperature for 24 hrs.
as §4, with “CO2. At the times and concentrations specified, chemoattractants/cytokines were added to the top or bottom compartment in 250 μl of PBSG-HSA.” for “CO2.”

CCCCC/C=C\C[C@@H](O)/C=C/C=C/C=C\[C@@H](O)CCCC(=O)O [LTB4, leukotriene B4]
PMNs that migrated through Matrigel-coated inserts (PMNs [1]): ~10%
Cultured monocytes that migrated through Matrigel-coated inserts (monocytes [2]): ~15%
Freshly isolated human monocytes that migrated through Matrigel-coated inserts (monocytes [2]): About 20%
PMN migration through plasma gels formed by thrombin treatment of human plasma (PMNs [3]): migrated
Fibrin-adherent PMNs that excluded fluorescein-conjugated F(ab)2 anti-fibrin (100 kDa) (PMNs [4]): About 50%
Monocytes that migrated through inserts coated with collagen I (monocytes [5]): 18%
PMN migration through gels of Matrigel or collagen IV (PMNs [6]): stimulated PMN migration
